These results are taken from patent US8383683B2, “Pharmaceutical use of substituted amides” (High Point Pharmaceuticals, LLC, priority 2007, dated 2013).

The structures appear in SMILES notation. pIC50: −log10 of the molar value.

In this experiment the target is 11βHSD1 (Homo sapiens, UniProt P28845). As to the kind of experiment: 11βHSD1 enzyme assay (SPA, 3H-cortisone to 3H-cortisol). Type of experiment: biochemical. Also on record: An extract of yeast transformed with h-11βHSD1 (Hutt et al., FEBS Lett., 441, 25 (1998)) was used as the source of enzyme; made in house. Particulars: extract of yeast transformed with h-11βHSD1; 120 nM 3H-cortisone, 4 mM β-NADPH, 60 min at 30° C. The method, then: Pharmacological Methods 11βHSD1 Enzyme Assay Materials
11βHSD1, sequence (P28845 whole entry): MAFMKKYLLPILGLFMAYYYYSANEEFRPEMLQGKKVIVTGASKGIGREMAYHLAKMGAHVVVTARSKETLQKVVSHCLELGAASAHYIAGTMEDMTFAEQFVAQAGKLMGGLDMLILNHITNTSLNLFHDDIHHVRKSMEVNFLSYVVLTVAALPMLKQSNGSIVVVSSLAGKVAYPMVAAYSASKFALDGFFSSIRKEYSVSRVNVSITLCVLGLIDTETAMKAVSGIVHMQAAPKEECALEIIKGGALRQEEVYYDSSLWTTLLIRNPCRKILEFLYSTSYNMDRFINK
^3H-cortisone and anti-rabbit Ig coated scintillation proximity assay (SPA) beads were purchased from Amersham Pharmacia Biotech, β-NADPH was from Sigma and rabbit anti-cortisol antibodies were from Fitzgerald. An extract of yeast transformed with h-11βHSD1 (Hutt et al., FEBS Lett., 441, 25 (1998)) was used as the source of enzyme. The test compounds were dissolved in DMSO (10 mM). All dilutions were performed in a buffer containing 50 mM TRIS-HCl (Sigma Chemical Co), 4 mM EDTA (Sigma Chemical Co), 0.1% BSA (Sigma Chemical Co), 0.01% Tween-20 (Sigma Chemical Co) and 0.005% bacitracin (Novo Nordisk NS), pH=7.4. Optiplate 96 wells plates were supplied by Packard. The amount of ^3H-cortisol bound to the SPA beads was measured on TopCount NXT, Packard.
h-11βHSD1, 120 nM ^3H-cortisone, 4 mM β-NADPH, antibody (1:200), serial dilutions of test compound and SPA particles (2 mg/well) were added to the wells. The reaction was initiated by mixing the different components and was allowed to proceed under shaking for 60 min at 30° C. The reaction was stopped be the addition of 10 fold excess of a stopping buffer containing 500 μM carbenoxolone and 1 μM cortisone. Data was analysed using GraphPad Prism software.

In turn, `O=C(CCCOc1ccc(Cl)cc1Cl)NC1C2CC3CC1CC(CO)(C3)C2` (stereo not shown) [Example 1-55, 4-(2,4-Dichloro-phenoxy)-N-(5-hydroxy-methyl-adamantan-2-yl)-butyramide] showed a pIC50 of 8.70.

In turn, `CC(C)N(C(=O)CCCOc1ccc(Cl)cc1Cl)C1C2CC3CC1CC(O)(C3)C2` (stereo not shown) [Example 1-56, 4-(2,4-Dichloro-phenoxy)-N-(5-hydroxy-adamantan-2-yl)-N-isopropyl-butyramide] gave a pIC50 of 6.49.

In the case of `CN(C(=O)CCCOc1ccc(Cl)cc1Cl)[C@H]1CCCC[C@@H]1O` [Example 1-57, 4-(2,4-Dichloro-phenoxy)-N-((1S,2S)-2-hydroxy-cyclohexyl)-N-methyl-butyramide], the pIC50 is 6.20.

The compound `CN(C(=O)CCCOc1ccc(Cl)cc1Cl)C1CCCC(C(=O)O)C1` (stereo not shown) [Example 1-58, 3-{[4-(2,4-Dichloro-phenoxy)-butyryl]-methyl-amino}-cyclo-hexanecarboxylic acid] had a pIC50 of 7.26.

As for `CN(C(=O)CCCOc1ccc(Cl)cc1Cl)C1CCCC(CO)C1` (stereo not shown) [Example 1-59, 4-(2,4-Dichloro-phenoxy)-N-(3-hydroxy-methyl-cyclo-hexyl)-N-methyl-butyramide], the negative logarithm of the IC50 (pIC50) was 8.52.

As for `CN(C(=O)CCCOc1ccc(Cl)cc1Cl)C1CCC(CO)CC1` (stereo not shown) [Example 1-60, 4-(2,4-Dichloro-phenoxy)-N-(4-hydroxy-methyl-cyclohexyl)-N-methyl-butyramide], the pIC50 is 9.00.

Turning to `CN(C(=O)CCCOc1ccc(Cl)cc1Cl)C1CCCC(O)C1` (stereo not shown) [Example 1-61, 4-(2,4-Dichloro-phenoxy)-N-(3-hydroxy-cyclohexyl)-N-methyl-butyramide], the pIC50 is 7.25.

As to `CN(C(=O)CCCOc1ccc(Cl)cc1Cl)[C@H]1CCCC[C@@H]1CO` [Example 1-62, 4-(2,4-Dichloro-phenoxy)-N-((S)-2-hydroxymethyl-cyclo-hexyl)-N-methyl-butyramide], the pIC50 was 6.91.

For `CN(C(=O)CCCOc1ccc(Cl)cc1Cl)C1CC2CC1CC2O` (stereo not shown) [Example 1-64, 4-(2,4-Dichloro-phenoxy)-N-(5-hydroxy-bicyclo[2.2.1]hept-2-yl)-N-methyl-butyramide], the pIC50 is 8.70.

Compound `CN(C(=O)CCCOc1ccc(Cl)cc1Cl)C1C2CC3CC1CC(CO)(C3)C2` (stereo not shown) [Example 1-65, 4-(2,4-Dichloro-phenoxy)-N-(5-hydroxy-methyl-adamantan-2-yl)-N-methyl-butyramide] gave a negative logarithm of the IC50 (pIC50) of 8.40.

For the compound `COC(=O)C12CC3CC(CN(C(=O)CCCOc4ccc(Cl)cc4Cl)C(C3)C1)C2` (stereo not shown) [Example 1-66, 4-[4-(2,4-Dichloro-phenoxy)-butyryl]-4-aza-tricyclo[4.3.1.1{3,8}]-undecane-1-carboxylic acid methyl ester], the pIC50 was 8.52.

Consider `O=C(CCCOc1ccc(Cl)cc1Cl)N1CC2CC3CC1CC(C(=O)O)(C3)C2` (stereo not shown) [Example 1-67, 4-[4-(2,4-Dichloro-phenoxy)-butyryl]-4-aza-tricyclo[4.3.1.1{3,8}]-undecane-1-carboxylic acid], for which the pIC50 was 7.60.

In turn, `COC(=O)C12CC3CC(C1)C(NC(=O)CCCOc1ccc(Cl)cc1Cl)C(C3)C2` (stereo not shown) [Example 1-68, 4-[4-(2,4-Dichloro-phenoxy)-butyrylamino]-adamantane-1-carboxylic acid methyl ester] had a negative logarithm of the IC50 (pIC50) of 7.77.

In turn, `CN(C(=O)CCCOc1ccc(Cl)cc1Cl)C1CCC(S(N)(=O)=O)CC1` (stereo not shown) [Example 1-69, 4-(2,4-Dichloro-phenoxy)-N-methyl-N-(4-sulfamoyl-cyclohexyl)-butyramide] gave a pIC50 of 8.70.

For the compound `CN(C(=O)CCCOc1ccc(Cl)cc1Cl)C1CCC(S(=O)(=O)N(C)C)CC1` (stereo not shown) [Example 1-70, 4-(2,4-Dichloro-phenoxy)-N-(4-dimethyl-sulfamoyl-cyclohexyl)-N-methyl-butyramide], the pIC50 was 6.32.

The compound `CN(C(=O)CCCOc1ccc(Cl)cc1Cl)C1CCC(S(=O)(=O)N(C)C)CC1` (stereo not shown) [Example 1-71, 4-(2,4-Dichloro-phenoxy)-N-(4-dimethyl-sulfamoyl-cyclohexyl)-N-methyl-butyramide] showed a pIC50 of 7.68.
